The CheMixHub viscosity set
± gives the uncertainty stated by the source.

Test: xn = mol fraction of the nth substance listed

CCC(C)=O + C1CCCCC1
Conditions	viscosity [mPa·s]
293.15 K, 101.33 kPa, x2 = 0.0479	0.401 ± 0.008
293.15 K, 101.33 kPa, x2 = 0.0956	0.404 ± 0.008
293.15 K, 101.33 kPa, x2 = 0.1983	0.433 ± 0.008
293.15 K, 101.33 kPa, x2 = 0.3046	0.466 ± 0.009
293.15 K, 101.33 kPa, x2 = 0.4002	0.488 ± 0.009
293.15 K, 101.33 kPa, x2 = 0.5028	0.53 ± 0.009
293.15 K, 101.33 kPa, x2 = 0.6056	0.581 ± 0.01
293.15 K, 101.33 kPa, x2 = 0.703	0.641 ± 0.011
293.15 K, 101.33 kPa, x2 = 0.8048	0.72 ± 0.012
293.15 K, 101.33 kPa, x2 = 0.9029	0.824 ± 0.014
293.15 K, 101.33 kPa, x2 = 0.9515	0.888 ± 0.014
298 K, 101.3 kPa, x2 = 0.126	0.426 ± 0.006
298 K, 101.3 kPa, x2 = 0.2633	0.448 ± 0.006
298 K, 101.3 kPa, x2 = 0.4524	0.501 ± 0.006
298 K, 101.3 kPa, x2 = 0.6037	0.554 ± 0.006
298 K, 101.3 kPa, x2 = 0.8267	0.685 ± 0.007
298.15 K, 101 kPa, x2 = 0.1	0.41 ± 0.004
298.15 K, 101 kPa, x2 = 0.2	0.425 ± 0.005
298.15 K, 101 kPa, x2 = 0.3	0.444 ± 0.005
298.15 K, 101 kPa, x2 = 0.4	0.472 ± 0.005
298.15 K, 101 kPa, x2 = 0.5	0.508 ± 0.005
298.15 K, 101 kPa, x2 = 0.6	0.548 ± 0.006
298.15 K, 101 kPa, x2 = 0.7	0.595 ± 0.006
298.15 K, 101 kPa, x2 = 0.8	0.665 ± 0.007
298.15 K, 101 kPa, x2 = 0.9	0.752 ± 0.007
298.15 K, 101.33 kPa, x2 = 0.0479	0.381 ± 0.007
298.15 K, 101.33 kPa, x2 = 0.0956	0.39 ± 0.008
298.15 K, 101.33 kPa, x2 = 0.1983	0.41 ± 0.008
298.15 K, 101.33 kPa, x2 = 0.3046	0.441 ± 0.008
298.15 K, 101.33 kPa, x2 = 0.4002	0.459 ± 0.008
298.15 K, 101.33 kPa, x2 = 0.5028	0.498 ± 0.009
298.15 K, 101.33 kPa, x2 = 0.6056	0.543 ± 0.01
298.15 K, 101.33 kPa, x2 = 0.703	0.597 ± 0.01
298.15 K, 101.33 kPa, x2 = 0.8048	0.668 ± 0.011
298.15 K, 101.33 kPa, x2 = 0.9029	0.76 ± 0.013
298.15 K, 101.33 kPa, x2 = 0.9515	0.816 ± 0.013
303.15 K, 101.33 kPa, x2 = 0.0479	0.363 ± 0.007
303.15 K, 101.33 kPa, x2 = 0.0956	0.37 ± 0.007
303.15 K, 101.33 kPa, x2 = 0.1983	0.388 ± 0.007
303.15 K, 101.33 kPa, x2 = 0.3046	0.419 ± 0.008
303.15 K, 101.33 kPa, x2 = 0.4002	0.433 ± 0.008
303.15 K, 101.33 kPa, x2 = 0.5028	0.468 ± 0.009
303.15 K, 101.33 kPa, x2 = 0.6056	0.51 ± 0.009
303.15 K, 101.33 kPa, x2 = 0.703	0.558 ± 0.01
303.15 K, 101.33 kPa, x2 = 0.8048	0.622 ± 0.011
303.15 K, 101.33 kPa, x2 = 0.9029	0.705 ± 0.012
303.15 K, 101.33 kPa, x2 = 0.9515	0.754 ± 0.013
307.35 K, 101.33 kPa, x1 = 0.1093	0.648 ± 0.01
307.35 K, 101.33 kPa, x1 = 0.361	0.504 ± 0.0093
307.35 K, 101.33 kPa, x1 = 0.4975	0.453 ± 0.0089
307.35 K, 101.33 kPa, x1 = 0.555	0.429 ± 0.0086
307.35 K, 101.33 kPa, x1 = 0.6809	0.413 ± 0.0085
307.35 K, 101.33 kPa, x1 = 0.8865	0.366 ± 0.0081
318 K, 101.3 kPa, x2 = 0.1257	0.349 ± 0.015
318 K, 101.3 kPa, x2 = 0.2611	0.3682 ± 0.015
318 K, 101.3 kPa, x2 = 0.4518	0.3996 ± 0.016
318 K, 101.3 kPa, x2 = 0.6033	0.4343 ± 0.017
318 K, 101.3 kPa, x2 = 0.8254	0.5157 ± 0.02

COC(C)=O + C1CCCCC1
viscosity [mPa·s], 101 kPa
Conditions	298.15 K	308.15 K
x1 = 0.055	0.839 ± 0.084	0.699 ± 0.07
x1 = 0.1546	0.759 ± 0.076	0.614 ± 0.062
x1 = 0.2543	0.689 ± 0.069	0.547 ± 0.055
x1 = 0.3548	0.627 ± 0.063	0.493 ± 0.05
x1 = 0.4537	0.572 ± 0.057	0.45 ± 0.045
x1 = 0.4985	0.551 ± 0.055	0.435 ± 0.044
x1 = 0.5556	0.525 ± 0.053	0.417 ± 0.042
x1 = 0.6544	0.483 ± 0.049	0.392 ± 0.039
x1 = 0.7479	0.448 ± 0.045	0.374 ± 0.038
x1 = 0.8548	0.413 ± 0.041	0.36 ± 0.036
x1 = 0.9548	–	0.352 ± 0.035

COC(C)=O + C1COCCO1
303.15 K, 101.3 kPa
Conditions	viscosity [mPa·s]
x2 = 0.1026	0.3813 ± 0.0033
x2 = 0.3032	0.4727 ± 0.0037
x2 = 0.5004	0.5895 ± 0.0042
x2 = 0.7187	0.7642 ± 0.005
x2 = 0.8981	0.9562 ± 0.006
